# Measurements: ChEMBL document CHEMBL3044672, “N9- and N7-(Chloromethyl Phenymethyl)Chloropurine Derivatives from , '-Dichloroxylenes: Synthesis and Anticancer Activity” (2005)
# Tests used:
# Assay type in all cases: functional
# 786-0 = assay: Cytotoxicity against Homo sapiens (human) 786-0 cells after 48 hr by sulforhodamine B assay; details: 786-0, 48 h
# MDA-MB-435 = assay: Cytotoxicity against Homo sapiens (human) MDA-MB-435 cells after 48 hr by sulforhodamine B assay; details: MDA-MB-435, 48 h
# OVCAR-5 = assay: Cytotoxicity against Homo sapiens (human) OVCAR5 cells after 48 hr by sulforhodamine B assay; details: OVCAR-5, 48 h
# HOP-92 = assay: Cytotoxicity against Homo sapiens (human) HOP92 cells after 48 hr by sulforhodamine B assay; details: HOP-92, 48 h
# SK-MEL-2 = assay: Cytotoxicity against Homo sapiens (human) SK-MEL-2 cells after 48 hr by sulforhodamine B assay; details: SK-MEL-2, 48 h
# IGROV-1 = assay: Cytotoxicity against Homo sapiens (human) IGROV1 cells after 48 hr by sulforhodamine B assay; details: IGROV-1, 48 h
# HCT-15 = assay: Cytotoxicity against Homo sapiens (human) HCT15 cells after 48 hr by sulforhodamine B assay; details: HCT-15, 48 h
# T47D = assay: Cytotoxicity against Homo sapiens (human) T47D cells after 48 hr by sulforhodamine B assay
# NCI-H460 = assay: Cytotoxicity against Homo sapiens (human) NCI-H460 cells after 48 hr by sulforhodamine B assay; details: NCI-H460, 48 h
# TK-10 = assay: Cytotoxicity against Homo sapiens (human) TK10 cells after 48 hr by sulforhodamine B assay; details: TK-10, 48 h
# Hs-578T = assay: Cytotoxicity against Homo sapiens (human) Hs 578T cells after 48 hr by sulforhodamine B assay
# [1] = Cytotoxicity against Homo sapiens (human) NCI-ADR-RES cells after 48 hr by sulforhodamine B assay
# OVCAR-3 = assay: Cytotoxicity against Homo sapiens (human) OVCAR3 cells after 48 hr by sulforhodamine B assay; details: OVCAR-3, 48 h
# CCRF-CEM = assay: Cytotoxicity against Homo sapiens (human) CCRF-CEM cells after 48 hr by sulforhodamine B assay
# M14 = assay: Cytotoxicity against Homo sapiens (human) M14 cells after 48 hr by sulforhodamine B assay; details: M14, 48 h
# A549 = assay: Cytotoxicity against Homo sapiens (human) A549 cells after 48 hr by sulforhodamine B assay; details: A549, 48 h
# A498 = assay: Cytotoxicity against Homo sapiens (human) A498 cells after 48 hr by sulforhodamine B assay; details: A498, 48 h
# ACHN = assay: Cytotoxicity against Homo sapiens (human) ACHN cells after 48 hr by sulforhodamine B assay
# NCI-H226 = assay: Cytotoxicity against Homo sapiens (human) NCI-H226 cells after 48 hr by sulforhodamine B assay; details: NCI-H226, 48 h
# DU-145 = assay: Cytotoxicity against Homo sapiens (human) DU145 cells after 48 hr by sulforhodamine B assay; details: DU-145, 48 h
# CAKI-1 = assay: Cytotoxicity against Homo sapiens (human) Caki1 cells after 48 hr by sulforhodamine B assay; details: CAKI-1, 48 h
# NCI-H322M = assay: Cytotoxicity against Homo sapiens (human) NCI-H322M cells after 48 hr by sulforhodamine B assay
# UO-31 = assay: Cytotoxicity against Homo sapiens (human) UO31 cells after 48 hr by sulforhodamine B assay; details: UO-31, 48 h
# SK-MEL-28 = assay: Cytotoxicity against Homo sapiens (human) SK-MEL-28 cells after 48 hr by sulforhodamine B assay; details: SK-MEL-28, 48 h
# U-251 = assay: Cytotoxicity against Homo sapiens (human) U251 cells after 48 hr by sulforhodamine B assay; details: U-251, 48 h
# SW-620 = assay: Cytotoxicity against Homo sapiens (human) SW620 cells after 48 hr by sulforhodamine B assay; details: SW-620, 48 h
# HCT-116 = assay: Cytotoxicity against Homo sapiens (human) HCT116 cells after 48 hr by sulforhodamine B assay; details: HCT-116, 48 h
# HCC 2998 = assay: Cytotoxicity against Homo sapiens (human) HCC2998 cells after 48 hr by sulforhodamine B assay; details: HCC 2998, 48 h
# SF-295 = assay: Cytotoxicity against Homo sapiens (human) SF295 cells after 48 hr by sulforhodamine B assay; details: SF-295, 48 h
# UACC-257 = assay: Cytotoxicity against Homo sapiens (human) UACC257 cells after 48 hr by sulforhodamine B assay; details: UACC-257, 48 h
# MOLT-4 = assay: Cytotoxicity against Homo sapiens (human) MOLT4 cells after 48 hr by sulforhodamine B assay; details: MOLT-4, 48 h
# [2] = read-out: LC50 (the source's name)
structure (smiles),measurement,setting,value
ClCc1cccc(Cn2cnc3c(Cl)ncnc32)c1,GI50,786-0,6.16 µM
same,LC50,786-0,50.1 µM
same,TGI,786-0,19.9 µM
same,GI50,MDA-MB-435,1.69 µM
same,LC50,MDA-MB-435,6.45 µM
same,TGI,MDA-MB-435,3.31 µM
same,GI50,OVCAR-5,2.08 µM
same,TGI,OVCAR-5,4.36 µM
same,CC50,OVCAR-5; [2],8.91 µM
same,GI50,HOP-92,2.45 µM
same,TGI,HOP-92,6.16 µM
same,CC50,HOP-92; [2],31.6 µM
same,GI50,SK-MEL-2,21.9 µM
same,LC50 (concentration killing 50% of cells),SK-MEL-2,> 100 µM
same,TGI,SK-MEL-2,51.3 µM
same,GI50,IGROV-1,9.33 µM
same,LC50,IGROV-1,> 100 µM
same,TGI,IGROV-1,33.9 µM
same,GI50,HCT-15,2.18 µM
same,TGI,HCT-15,4.67 µM
same,CC50,HCT-15; [2],10 µM
same,GI50,T47D,3.02 µM
same,LC50,T47D,> 100 µM
same,TGI,T47D,12.3 µM
same,GI50,NCI-H460,11.8 µM
same,TGI,NCI-H460,36.3 µM
same,CC50,NCI-H460; [2],> 100 µM
same,GI50,TK-10,4.57 µM
same,TGI,TK-10,16.2 µM
same,CC50,TK-10; [2],46.8 µM
same,GI50,Hs-578T,3.46 µM
same,LC50,Hs-578T,81.3 µM
same,TGI,Hs-578T,11.5 µM
same,GI50,[1],2.45 µM
same,LC50 (concentration killing 50% of cells),[1],37.1 µM
same,TGI,[1],7.58 µM
same,GI50,OVCAR-3,1.62 µM
same,LC50,OVCAR-3,5.75 µM
same,TGI,OVCAR-3,3.02 µM
same,GI50,CCRF-CEM,1.9 µM
same,TGI,CCRF-CEM,3.89 µM
same,CC50,CCRF-CEM; [2],7.62 µM
same,GI50,M14,1.66 µM
same,LC50,M14,6.6 µM
same,TGI,M14,3.31 µM
same,GI50,A549,19.5 µM
same,TGI,A549,39.8 µM
same,CC50,A549; [2],79.4 µM
same,GI50,A498,17.4 µM
same,"LC50 (lethal concentration, 50% cell kill)",A498,58.9 µM
same,TGI,A498,31.6 µM
same,GI50,ACHN,2.08 µM
same,TGI,ACHN,4.07 µM
same,CC50,ACHN; [2],8.12 µM
same,GI50,NCI-H226,2.13 µM
same,TGI,NCI-H226,14.4 µM
same,CC50,NCI-H226; [2],8.91 µM
same,GI50,DU-145,11.2 µM
same,LC50,DU-145,51.3 µM
same,TGI,DU-145,24 µM
same,GI50,CAKI-1,1.54 µM
same,TGI,CAKI-1,2.95 µM
same,CC50,CAKI-1; [2],5.62 µM
same,GI50,NCI-H322M,1.9 µM
same,TGI,NCI-H322M,3.46 µM
same,CC50,NCI-H322M; [2],6.45 µM
same,GI50,UO-31,1.44 µM
same,LC50 (concentration causing 50% net cell kill),UO-31,89.1 µM
same,TGI,UO-31,36.3 µM
same,GI50,SK-MEL-28,2.23 µM
same,LC50 (concentration killing 50% of cells),SK-MEL-28,28.8 µM
same,TGI,SK-MEL-28,5.75 µM
same,GI50,U-251,1.82 µM
same,LC50 (concentration killing 50% of cells),U-251,6.76 µM
same,TGI,U-251,3.46 µM
same,GI50,SW-620,2.13 µM
same,TGI,SW-620,4.36 µM
same,CC50,SW-620; [2],8.91 µM
same,GI50,HCT-116,1.47 µM
same,TGI,HCT-116,3.09 µM
same,CC50,HCT-116; [2],6.31 µM
same,GI50,HCC 2998,0.4 µM
same,TGI,HCC 2998,1.73 µM
same,CC50,HCC 2998; [2],5.49 µM
same,GI50,SF-295,3.23 µM
same,TGI,SF-295,8.7 µM
same,CC50,SF-295; [2],29.5 µM
same,GI50,UACC-257,20.4 µM
same,LC50 (concentration killing 50% of cells),UACC-257,67.6 µM
same,TGI,UACC-257,37.1 µM
same,GI50,MOLT-4,15.8 µM
same,TGI,MOLT-4,37.1 µM
same,CC50,MOLT-4; [2],89.1 µM
